Measured values as given in the NIST ThermoML archive (doi:10.1021/je060490w).
Numbers after ± are expanded uncertainties.

Test: xn = mol fraction of the nth substance listed
Details: Pendant drop shape

CCOC(C)OCC [1,1-diethoxyethane] + Cc1ccc(C)c(C)c1
Details | surface tension liquid-gas [mN/m]
298.15 K, x1 = 0.05 | 28.51 ± 0.32
298.15 K, x1 = 0.1 | 27.76 ± 0.31
298.15 K, x1 = 0.151 | 26.97 ± 0.31
298.15 K, x1 = 0.2005 | 26.29 ± 0.3
298.15 K, x1 = 0.2511 | 25.71 ± 0.3
298.15 K, x1 = 0.3005 | 25.14 ± 0.29
298.15 K, x1 = 0.3526 | 24.6 ± 0.29
298.15 K, x1 = 0.401 | 24.16 ± 0.28
298.15 K, x1 = 0.4538 | 23.73 ± 0.28
298.15 K, x1 = 0.5034 | 23.35 ± 0.28
298.15 K, x1 = 0.5513 | 23.01 ± 0.27
298.15 K, x1 = 0.5998 | 22.7 ± 0.27
298.15 K, x1 = 0.6519 | 22.41 ± 0.27
298.15 K, x1 = 0.7012 | 22.08 ± 0.26
298.15 K, x1 = 0.7499 | 21.85 ± 0.26
298.15 K, x1 = 0.8003 | 21.58 ± 0.26
298.15 K, x1 = 0.8491 | 21.42 ± 0.26
298.15 K, x1 = 0.9 | 21.21 ± 0.26
298.15 K, x1 = 0.9399 | 21.09 ± 0.26
298.15 K, x1 = 1 | 20.88 ± 0.25
308.15 K, x1 = 0.0488 | 27.35 ± 0.31
308.15 K, x1 = 0.0993 | 26.53 ± 0.3
308.15 K, x1 = 0.1486 | 25.79 ± 0.3
308.15 K, x1 = 0.2003 | 25.09 ± 0.29
308.15 K, x1 = 0.2497 | 24.51 ± 0.29
308.15 K, x1 = 0.3001 | 23.95 ± 0.28
308.15 K, x1 = 0.3499 | 23.47 ± 0.28
308.15 K, x1 = 0.4004 | 23.02 ± 0.27
308.15 K, x1 = 0.4534 | 22.6 ± 0.27
308.15 K, x1 = 0.5016 | 22.23 ± 0.27
308.15 K, x1 = 0.55 | 21.9 ± 0.26
308.15 K, x1 = 0.6017 | 21.54 ± 0.26
308.15 K, x1 = 0.6514 | 21.24 ± 0.26
308.15 K, x1 = 0.7003 | 20.96 ± 0.26
308.15 K, x1 = 0.7498 | 20.72 ± 0.25
308.15 K, x1 = 0.8007 | 20.46 ± 0.25
308.15 K, x1 = 0.8502 | 20.28 ± 0.25
308.15 K, x1 = 0.8989 | 20.09 ± 0.25
308.15 K, x1 = 0.9488 | 19.95 ± 0.25
308.15 K, x1 = 1 | 19.89 ± 0.25
313.15 K, x1 = 0.0498 | 26.73 ± 0.3
313.15 K, x1 = 0.0992 | 25.91 ± 0.3
313.15 K, x1 = 0.1501 | 25.09 ± 0.29
313.15 K, x1 = 0.2003 | 24.46 ± 0.29
313.15 K, x1 = 0.2496 | 23.86 ± 0.28
313.15 K, x1 = 0.3027 | 23.34 ± 0.28
313.15 K, x1 = 0.3505 | 22.89 ± 0.27
313.15 K, x1 = 0.4 | 22.43 ± 0.27
313.15 K, x1 = 0.4501 | 22.05 ± 0.26
313.15 K, x1 = 0.499 | 21.67 ± 0.26
313.15 K, x1 = 0.5463 | 21.37 ± 0.26
313.15 K, x1 = 0.6011 | 20.95 ± 0.26
313.15 K, x1 = 0.6503 | 20.68 ± 0.25
313.15 K, x1 = 0.7002 | 20.4 ± 0.25
313.15 K, x1 = 0.7491 | 20.14 ± 0.25
313.15 K, x1 = 0.7998 | 19.91 ± 0.25
313.15 K, x1 = 0.8507 | 19.72 ± 0.25
313.15 K, x1 = 0.899 | 19.53 ± 0.25
313.15 K, x1 = 0.9497 | 19.45 ± 0.24
313.15 K, x1 = 1 | 19.42 ± 0.24

Cc1cc(C)cc(C)c1 [1,3,5-trimethylbenzene] + CCOC(C)OCC
x2 = 0
Details | surface tension liquid-gas [mN/m]
298.15 K | 28.05 ± 0.31
308.15 K | 27.21 ± 0.3
313.15 K | 26.78 ± 0.3

Cc1ccc(C)c(C)c1 [1,2,4-trimethylbenzene] + CCOC(C)OCC
x2 = 0
Details | surface tension liquid-gas [mN/m]
298.15 K | 29.3 ± 0.33
308.15 K | 28.24 ± 0.32
313.15 K | 27.71 ± 0.31
